One may read the EC50 as the concentration giving half of the maximal effect.

SMILES strings stand for the structures. Bounds are passed on as bounds.

The record followed here is patent US8030354B2, “Substituted biphenyl GPR40 modulators” (Amgen Inc., priority 2007, dated 2011).

Test [1] concerns the target T1, GPR40 (Homo sapiens, UniProt O14842). Description: Cell-based aequorin assay (CHO cells stably expressing GPR40 and aequorin). Also noted: expressed in transfected cells; host or cells: CHO cells stably transfected with GPR40 and aequorin. The following applies: activation of human GPR40, CHO cells, 0.01% HSA. The procedure, abridged: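 CHO cells stably co-expressing GPR40 and aequorin, loaded with coelenterazine (1 ug/mL, 2 h, room temperature) in H/HBSS with 20 mM Hepes and 0.01% fatty acid-free HSA. Serially diluted compounds added; luminescence recorded over 20 s. EC50 from dose-response of maximum relative light units.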

For test [2], the target named is T1, GPR40. In words: Inositol phosphate accumulation assay (A9_GPR40 cells). The class given is cell-based. On the set-up: expressed in transfected cells; host or cells: CHO cells stably transfected with GPR40 and aequorin. The conditions noted are these: inositol phosphate assay, A9_GPR40 cells, 1 hour; read-out: IP3 EC50. The procedure, abridged:
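[^3H] inositol phosphate accumulation was measured by SPA after 1 h compound exposure at 37° C in HBSS/10 mM LiCl containing HSA, ending with a 20 mM formic acid quench. The GPR40-transfected A9 cells had first been labelled overnight (16 h) with 1 μCi/mL ^3H-inositol.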

T1 sequence (O14842 whole entry): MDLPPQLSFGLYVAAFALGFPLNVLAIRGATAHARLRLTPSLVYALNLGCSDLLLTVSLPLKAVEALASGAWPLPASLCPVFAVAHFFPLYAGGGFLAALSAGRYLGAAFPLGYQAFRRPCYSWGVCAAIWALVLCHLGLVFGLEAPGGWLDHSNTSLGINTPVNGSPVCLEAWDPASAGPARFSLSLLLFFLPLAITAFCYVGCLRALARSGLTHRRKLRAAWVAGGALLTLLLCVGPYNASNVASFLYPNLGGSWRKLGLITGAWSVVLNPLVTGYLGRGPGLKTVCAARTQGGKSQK

As for `COc1ccc(F)c(-c2ccc(COc3cccc([C@@H](CC(=O)O)CC4CC4)c3)cc2C(C)C(C)C)c1` (single isomer, unassigned) [Example 69.12, (3R)-4-Cyclopropyl-3-(3-(((2-(1,2-dimethylpropyl)-2′-fluoro-5′-(methyloxy)-1,1′-biphenyl-4-yl)methyl)oxy)phenyl)butanoic acid or (3S)-4-cyclopropyl-3-(3-(((2-(1,2-dimethylpropyl)-2′-fluoro-5′-(methyloxy)-1,1′-biphenyl-4-yl)methyl)oxy)phenyl)butanoic acid], the figures for the concentration giving a half-maximal response (EC50) in test [1] and in test [2] were 100 to 1000 nM and less than 10 nM, respectively.

Regarding `COc1ccc(F)c(-c2ccc(COc3cccc(C(CC(=O)O)CC4CC4)c3)cc2C2CCCCCCC2)c1` (single isomer, unassigned) [Example 69.13, (3R)-3-(3-(((2-Cyclooctyl-2′-fluoro-5′-(methyloxy)-1,1′-biphenyl-4-yl)methyl)oxy)phenyl)-4-cyclopropylbutanoic acid or (3S)-3-(3-(((2-cyclooctyl-2′-fluoro-5′-(methyloxy)-1,1′-biphenyl-4-yl)methyl)oxy)phenyl)-4-cyclopropylbutanoic acid], the values for the concentration for a half-maximal effect (EC50) in test [1] and in test [2] were 100 to 1000 nM and less than 10 nM, respectively.

For the molecule `COc1ccc(F)c(-c2ccc(COc3cccc([C@@H](CC(=O)O)CC4CC4)c3)cc2C(O)C(C)(C)C)c1` (single isomer, unassigned) [Example 69.14, (3R)-4-Cyclopropyl-3-(3-(((2′-fluoro-2-(1-hydroxy-2,2-dimethylpropyl)-5′-(methyloxy)-1,1′-biphenyl-4-yl)methyl)oxy)phenyl)butanoic acid or (3S)-4-cyclopropyl-3-(3-(((2′-fluoro-2-(1-hydroxy-2,2-dimethylpropyl)-5′-(methyloxy)-1,1′-biphenyl-4-yl)methyl)oxy)phenyl)butanoic acid], the EC50 in test [1] and in test [2] was 100 to 1000 nM in each case.

As to `C=C(c1cc(COc2cccc([C@@H](CC(=O)O)CC3CC3)c2)ccc1-c1cc(OC)ccc1F)C(C)(C)C` (single isomer, unassigned) [Example 69.15, (3R)-4-Cyclopropyl-3-(3-(((2-(1-(1,1-dimethylethyl)ethenyl)-2′-fluoro-5′-(methyloxy)-1,1′-biphenyl-4-yl)methyl)oxy)phenyl)butanoic acid or (3S)-4-cyclopropyl-3-(3-(((2-(1-(1,1-dimethylethyl)ethenyl)-2′-fluoro-5′-(methyloxy)-1,1′-biphenyl-4-yl)methyl)oxy)phenyl)butanoic acid], the EC50 was in the range of 100 to 1000 nM in test [1] and 10 to 100 nM in test [2].

With `COc1ccc(F)c(-c2ccc(COc3cccc([C@@H](CC(=O)O)CC4CC4)c3)cc2CC(C)(C)C)c1` (single isomer, unassigned) [Example 69.16, (3R)-4-Cyclopropyl-3-(3-(((2-(2,2-dimethylpropyl)-2′-fluoro-5′-(methyloxy)-1,1′-biphenyl-4-yl)methyl)oxy)phenyl)butanoic acid or (3S)-4-cyclopropyl-3-(3-(((2-(2,2-dimethylpropyl)-2′-fluoro-5′-(methyloxy)-1,1′-biphenyl-4-yl)methyl)oxy)phenyl)butanoic acid], the EC50 in test [1] and in test [2] was 10 to 100 nM each time.

For `COc1ccc(F)c(-c2ccc(COc3cccc([C@@H](CC(=O)O)CC4CC4)c3)cc2C(F)C(C)(C)C)c1` (single isomer, unassigned) [Example 69.17, (3R)-4-cyclopropyl-3-(3-(((2′-fluoro-2-(1-fluoro-2,2-dimethylpropyl)-5′-(methyloxy)-1,1′-biphenyl-4-yl)methyl)oxy)phenyl)butanoic acid or (3S)-4-cyclopropyl-3-(3-(((2′-fluoro-2-(1-fluoro-2,2-dimethylpropyl)-5′-(methyloxy)-1,1′-biphenyl-4-yl)methyl)oxy)phenyl)butanoic acid], the EC50 in test [1] was 100 to 1000 nM; in test [2], less than 10 nM.

For the molecule `COc1ccc(F)c(-c2ccc(COc3cccc([C@@H](CC(=O)O)CC4CC4)c3)cc2C(OC)C(C)(C)C)c1` (single isomer, unassigned) [Example 69.18, (3R)-4-Cyclopropyl-3-(3-(((2-(2,2-dimethyl-1-(methyloxy)propyl)-2′-fluoro-5′-(methyloxy)-1,1′-biphenyl-4-yl)methyl)oxy)phenyl)butanoic acid or (3S)-4-cyclopropyl-3-(3-(((2-(2,2-dimethyl-1-(methyloxy)propyl)-2′-fluoro-5′-(methyloxy)-1,1′-biphenyl-4-yl)methyl)oxy)phenyl)butanoic acid], the figures for the EC50 in test [1] and in test [2] were 100 to 1000 nM and less than 10 nM, respectively.

Regarding `COc1ccc(F)c(-c2ccc(COc3cccc([C@@H](CC(=O)O)CC4CC4)c3)cc2C(O)(C(C)C)C(C)C)c1` (single isomer, unassigned) [Example 69.19, (3R)-4-Cyclopropyl-3-(3-(((2′-fluoro-2-(1-hydroxy-2-methyl-1-(1-methylethyl)propyl)-5′-(methyloxy)-1,1′-biphenyl-4-yl)methyl)oxy)phenyl)butanoic acid or (3S)-4-cyclopropyl-3-(3-(((2′-fluoro-2-(1-hydroxy-2-methyl-1-(1-methylethyl)propyl)-5′-(methyloxy)-1,1′-biphenyl-4-yl)methyl)oxy)phenyl)butanoic acid], the EC50 in test [1] and in test [2] was 100 to 1000 nM in each case.

`COc1ccc(F)c(-c2ccc(COc3cccc(C(CC(=O)O)CC4CC4)c3)cc2CC(C)C)c1` (single isomer, unassigned) [Example 69.21, (3R)-4-Cyclopropyl-3-(3-(((2′-fluoro-5′-(methyloxy)-2-(2-methylpropyl)-1,1′-biphenyl-4-yl)methyl)oxy)phenyl)butanoic acid or (3S)-4-cyclopropyl-3-(3-(((2′-fluoro-5′-(methyloxy)-2-(2-methylpropyl)-1,1′-biphenyl-4-yl)methyl)oxy)phenyl)butanoic acid]: the values for the EC50 in test [1] and in test [2] were 100 to 1000 nM and 10 to 100 nM, respectively.

Regarding `COc1ccc(F)c(-c2ccc(COc3cccc(C(CC(=O)O)CC4CC4)c3)cc2C(C)C(C)(C)C)c1` (single isomer, unassigned) [Example 69.22], the EC50 in test [1] is 100 to 1000 nM; in test [2] it was less than 10 nM.

Take `COCCO[C@H](c1cc(COc2cccc([C@@H](CC(=O)O)CC3CC3)c2)ccc1-c1cc(OC)ccc1F)C(C)(C)C` (single isomer, unassigned) [Example 69.23]: the figures for the EC50 in test [1] and in test [2] were 10 to 100 nM and less than 10 nM, respectively.

As to `COc1ccc(F)c(-c2ccc(COc3cccc([C@@H](CC(=O)O)CC4CC4)c3)cc2SC(C)C)c1` (single isomer, unassigned) [Example 69.24, (R)-4-Cyclopropyl-3-[3-(2′-fluoro-2-isopropylsulfanyl-5′-methoxy-biphenyl-4-ylmethoxy)-phenyl]-butyric acid or (S)-4-cyclopropyl-3-[3-(2′-fluoro-2-isopropylsulfanyl-5′-methoxy-biphenyl-4-ylmethoxy)-phenyl]-butyric acid], the half-maximal effective concentration (EC50) was in the range of 100 to 1000 nM in test [1] and 10 to 100 nM in test [2].

Turning to `COc1ccc(F)c(-c2ccc(COc3cccc(C(CC(=O)O)CC4CC4)c3)cc2N2CCCCC2)c1` (single isomer, unassigned) [Example 69.28, (3R)-4-Cyclopropyl-3-(3-(((2′-fluoro-5′-(methyloxy)-2-(1-piperidinyl)-1,1′-biphenyl-4-yl)methyl)oxy)phenyl)butanoic acid or (3S)-4-cyclopropyl-3-(3-(((2′-fluoro-5′-(methyloxy)-2-(1-piperidinyl)-1,1′-biphenyl-4-yl)methyl)oxy)phenyl)butanoic acid], the EC50 in test [1] lay within 100 to 1000 nM; in test [2] it was 10 to 100 nM.

Turning to `COc1ccc(F)c(-c2ccc(COc3cccc(C(CC(=O)O)CC4CC4)c3)cc2N2CCCCCC2)c1` (single isomer, unassigned) [Example 69.29, (3R)-3-(3-(((2-(1-Azepanyl)-2′-fluoro-5′-(methyloxy)-1,1′-biphenyl-4-yl)methyl)oxy)phenyl)-4-cyclopropylbutanoic acid or (3S)-3-(3-(((2-(1-azepanyl)-2′-fluoro-5′-(methyloxy)-1,1′-biphenyl-4-yl)methyl)oxy)phenyl)-4-cyclopropylbutanoic acid], the EC50 in test [1] and in test [2] was 100 to 1000 nM each time.

In the case of `COc1ccc(F)c(-c2cc(F)c(COc3cccc(C(CC(=O)O)CC4CC4)c3)cc2C2=CCCC2(C)C)c1` (single isomer, unassigned) [Example 69.30, (3R)-4-cyclopropyl-3-(3-(((2-(5,5-dimethyl-1-cyclopenten-1-yl)-2′,5-difluoro-5′-(methyloxy)-1,1′-biphenyl-4-yl)methyl)oxy)phenyl)butanoic acid or (3S)-4-cyclopropyl-3-(3-(((2-(5,5-dimethyl-1-cyclopenten-1-yl)-2′,5-difluoro-5′-(methyloxy)-1,1′-biphenyl-4-yl)methyl)oxy)phenyl)butanoic acid], the EC50 in test [1] was 100 to 1000 nM; in test [2] it was less than 10 nM.
